Source: patent publication US7166618B2, “Nitrosated and nitrosylated cyclooxygenase-2 inhibitors, compositions and methods of use” (NitroMed, Inc., priority 1999, dated 2007)
Entries after “also recorded” stand apart in the source; their conditions may differ.

What was measured:
[1] = tested on: carrageenan-induced rat paw edema; assay: Carrageenan-induced rat paw edema test; type: in vivo; details: rats dosed intragastrically, paw volume 3 hours after carrageenan
Protocol: The carrageenan-induced rat paw edema test was used to measure antiinflammatory activity. The paw edema test was performed according to the method of Winter et al, Proc. Soc. Exp. Biol. Med. 111: 544–547, 1962. Male Sprague-Dawley rats (200–250 g) were fasted for 24 hours with water ad libitum. The rats were dosed intragastrically with test compounds in a volume of 5 mL/kg. One hour after dosing the paw volume was measured. Then each rat received a subplantar injection of 50 μl of 1% suspension of carrageenan. Three hours later, the paw volume was measured and compared with the initial volume measured […]. The increase in paw volume is presented as the mean±SEM for 5 rats per group. Data were analyzed by performing an ANOVA test followed by a Student-Keuls post hoc test.

[2] = biological target: T1, ovine COX-1 (Ovis aries, UniProt P05979); assay: biochemical; details: for IC50: ovine COX-1
T1 sequence (P05979 25-600): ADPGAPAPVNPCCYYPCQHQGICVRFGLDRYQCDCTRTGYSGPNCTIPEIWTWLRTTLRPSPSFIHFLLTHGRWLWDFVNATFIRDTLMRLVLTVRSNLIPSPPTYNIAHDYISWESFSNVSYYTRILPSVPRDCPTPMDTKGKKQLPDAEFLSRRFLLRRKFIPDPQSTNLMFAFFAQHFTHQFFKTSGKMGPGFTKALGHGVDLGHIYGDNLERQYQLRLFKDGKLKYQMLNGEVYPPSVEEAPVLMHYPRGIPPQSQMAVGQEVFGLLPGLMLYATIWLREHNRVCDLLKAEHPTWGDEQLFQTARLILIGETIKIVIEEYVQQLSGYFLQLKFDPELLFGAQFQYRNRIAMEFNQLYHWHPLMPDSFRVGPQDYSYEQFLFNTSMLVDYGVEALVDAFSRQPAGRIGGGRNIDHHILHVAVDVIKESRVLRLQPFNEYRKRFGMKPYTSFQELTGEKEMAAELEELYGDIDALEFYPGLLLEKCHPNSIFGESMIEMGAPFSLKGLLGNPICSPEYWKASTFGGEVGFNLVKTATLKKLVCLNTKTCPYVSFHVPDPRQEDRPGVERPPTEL
Protocol: (§1) The ovine COX-1 and COX-2 activities and the measurement of the prostaglandin products synthesized were performed using the COX Inhibitor Screening Assay (Cayman Chemical, Ann Arbor, Mich., which also contained the Prostaglandin Screening EIA Kit, used for prostaglandin quantification). The test compounds were dissolved at 50 times the highest final reaction concentration in DMSO or any other suitable solvent as stock solutions. These stock solutions were then diluted in the same solvent. Eight glass test tubes (13×100 mm) were placed in a 37° C. water bath. To each test tube was added 950 μL of reaction buffer (0.1 M Tris-HCl, pH 8.0, containing 5 mM EDTA, and 2 mM phenol), 10 μL of 100 µM heme solution, and 10 μL (5 units) of either ovine COX-1 or COX-2 and the resulting mixture was incubated with the enzyme for 2 minutes. Twenty μL of the solvent was added to one tube (100% initial activity or solvent control) and 20 μL of each dilution of the test compound was added to one tube each. Each tube was vortexed immediately after the addition. The enzyme was incubated with the inhibitor for 3.5 minutes at 37° C. The enzymatic reaction was then initiated by the addition of 10 μL of freshly prepared 10 mM arachidonic acid (neutralized with KOH), vortexed and then incubated for 2 minutes at 37° C. The reaction was terminated by the addition of 50 μL of 1 M HCl, vortexed and placed at room temperature. One hundred microliters of a saturated stannous chloride solution (50 mg/mL of 0.1 M HCl) was added and the reaction mixture was allowed to stand at room temperature for at least 5 minutes.
(§2) The prostaglandins (PG) produced in the reactions were assayed, after a 2,000-fold dilution, using the Prostaglandin Screening EIA Kit (Cayman Chemical, Ann Arbor, Mich.). The assay-contains an antibody with broad specificity for all the prostaglandin families (PGF, PGE, PGD, and thromboxane B-type) synthesized in the COX-1/COX 2 reactions. The synthesized prostaglandin competes with a PG-tagged acetylcholine esterase tracer for binding to the PG antibody. Binding of synthesized PG lowers the calorimetric development of the Ellman's Reagent (computed as % B/B0). The actual amount of synthesized PG was interpolated from a standard curve using known amounts of supplied prostaglandin E2 (PGE2) (PGE2 concentration vs. % B/B0). The data generated were the mean±standard deviation of triplicate wells in the EIA for a single reaction at a given inhibitor concentration.

[3] = tested on: rat aortic smooth muscle rings; assay: Relaxation of phenylephrine-contracted rat aortic smooth muscle rings; details: rings precontracted with 10 μM phenylephrine; for relaxation of aortic smooth muscle ring: 100 nM to 100 μM test compound; for relaxation compared with reference NO donor (ISDN or GSNO): comparator as in the value
Protocol: Male Sprague-Dawley rats (Charles River Laboratories (Wilmington, Mass.) were euthanized by intraperiton injection of a high dose of sodium pentobarbitone (80–100 mg/kg). The thoracic aorta was rapidly excised and immediately placed in a Petri dish containing warm (37° C.) oxygenated (95% O2 and 5% CO2) Kreb's buffer (composition per millimolar: NaCl (119); KCl (4.69); CaCl2.H2O (2.52); MgSO4.7H2O (0.57); NaHCO3 (25); NaH2PO4.H2O (1.01) and glucose (11.1). Under a stereoscopic dissecting microscope, the aorta was cleaned, freed from adhering fat and connective tissues. The tissue was cut into ring segments, each approximately 2–3 mm in length.
For experiments to measure relaxation of the tissue under various conditions, a stainless steel tissue holder and an U-shaped stainless steel wire were inserted into the lumen of the aortic ring. The tissue holder anchored the ring at the bottom of the organ bath whereas the end of the U-shaped steel wire was tied with fine silk thread so that it connected to the FT-202 transducer. The tissue holder and the steel wire along with the aortic ring were then suspended in a 5-mL double-jacketed temperature-controlled glass organ bath (Radnoti Glass Technology, Inc., Monrovia, Calif.) filled with fresh Kreb's buffer. A mixture of 95% O2 and 5% CO2 was bubbled through a porous sintered disc at the bottom of the bath. The rings were given an initial resting tension of 1.5 g and the preparation was allowed to equilibrate at the initial tension for about 90 minutes. During this equilibration period, the bath fluid was changed every 15 minutes and replaced with fresh prewarmed (37° C.) Kreb's buffer. The isometric tension of the aortic muscle at rest and its response to different stimuli were recorded on a Power Macintosh 6100 computer via a MacLab 8/S computer interface (CB Sciences, Inc, Milford, Mass.) after an initial amplification through a low-noise ETH-400 bioamplifier (CB Sciences, Inc, Milford, Mass.). Contractile responsiveness of the tissue strips was established with 10 μM phenylephrine and the strips were incubated with the drug for 20 minutes to establish a steady level of contraction. To test the relaxation effects, test compounds were added to the phenylephrine-precontracted strips in the tissue bath at cumulative concentrations of 0.1 μM to 0.1 mM. Concentration of test compounds was increased only after relaxation at the previous concentration had reached a plateau level.

[4] = biological target: T2, ovine COX-2 (Ovis aries, UniProt P79208); assay: biochemical; type: biochemical; details: for IC50: ovine COX-2, read-out: COX-2 IC50
T2 sequence (P79208 17-603): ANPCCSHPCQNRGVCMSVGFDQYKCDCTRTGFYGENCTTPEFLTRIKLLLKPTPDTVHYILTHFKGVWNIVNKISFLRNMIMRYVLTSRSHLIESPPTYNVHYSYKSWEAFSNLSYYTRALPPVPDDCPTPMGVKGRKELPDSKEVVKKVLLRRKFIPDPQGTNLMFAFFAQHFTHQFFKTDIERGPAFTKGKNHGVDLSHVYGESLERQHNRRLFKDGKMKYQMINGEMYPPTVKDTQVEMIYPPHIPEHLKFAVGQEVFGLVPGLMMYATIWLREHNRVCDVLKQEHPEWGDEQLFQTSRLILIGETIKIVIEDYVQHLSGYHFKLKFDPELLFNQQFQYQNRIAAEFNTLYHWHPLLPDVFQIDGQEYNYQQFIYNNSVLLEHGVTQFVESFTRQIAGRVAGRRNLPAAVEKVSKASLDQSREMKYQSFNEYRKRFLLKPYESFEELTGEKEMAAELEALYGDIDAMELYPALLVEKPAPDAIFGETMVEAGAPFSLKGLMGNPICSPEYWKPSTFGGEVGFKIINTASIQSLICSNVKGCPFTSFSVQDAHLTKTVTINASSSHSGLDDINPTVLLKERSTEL
Protocol: as §1, §2

| SMILES | paw volume (antiinflammatory activity) [1] | IC50 [2] [µM] | relaxation of aortic smooth muscle ring [3] | relaxation compared with reference NO donor (ISDN or GSNO) [3] | IC50 [4] [µM] | inhibition at 100 µM ([2]; Ovine COX-1 (footnote a), at 100 μM) [%] | relaxation compared with reference NO donor (ISDN or GSNO) ([3]; Citrate Salt) | COX-2 inhibition potency compared with the parent compound ([4]; ovine enzymes, from Table 1) |
| --- | --- | --- | --- | --- | --- | --- | --- | --- |
| Cc1ccc(-c2cc(C(F)(F)F)nn2-c2ccc(S(N)(=O)=O)cc2)cc1 [Celecoxib, 4-(5-(4-methylphenyl)-3-(trifluoromethyl)-1H-pyrazol-1-yl)benzenesulfonamide] | reduced the paw volume | – | – | – | – | – | – | – |
| NS(=O)(=O)c1ccc(-n2nc(CO[N+](=O)[O-])cc2-c2ccc(Cl)cc2)cc1 [Example 1b, 4-(5-(4-Chlorophenyl)-3-((nitrooxy)methyl)-3-hydropyrazolyl) benzenesulfonamide] | – | 190 | induced the relaxation of the aortic ring | more potent than that obtained by the nitrate compound, isosorbide dinitrate | 10 | – | – | – |
| NS(=O)(=O)c1ccc(-c2c(-c3ccccc3)noc2CO)cc1 [Example 2a, 4-(5-(Hydroxymethyl)-3-phenylisoxazol-4-yl)benzenesulfonamide, reference compound] | reduced the paw volume | > 300 | did not relax the tissue; also recorded: did not relax the aortic ring | – | – | 0 | – | – |
| Cc1onc(-c2ccccc2)c1-c1ccc(S(=O)(=O)NC(=O)CCC(=O)OCCC2(SN=O)CCN(C)CC2)cc1.O=C(O)CC(O)(CC(=O)O)C(=O)O [Example 3g, 2-(1-Methyl-4-(nitrosothio)-4-piperidyl)ethyl 3-(N-((4-(5-methyl-3-phenylisoxazol-4-yl)phenyl)sulfonyl)carbamoyl)propanoate Citrate Salt] | – | > 300 | induced the relaxation of the aortic ring | – | 70 | – | comparable to that obtained with GSNO | not as potent as the parent non-nitrosylated compound |
| CS(=O)(=O)c1ccc(-c2nc3cc(CO)ccn3c2-c2ccc(F)cc2)cc1 [Example 5a, 1-(3-(4-Fluorophenyl)-7-(hydroxymethyl)(3a-hydroimidazolo(1,2-a)pyridin-2-yl))-4-(methylsulfonyl)benzene, reference compound] | – | > 300 | – | – | 12 | – | – | – |
